Reference: patent US8889411B2, “Modulation of stem and progenitor cell differentiation, assays, and uses thereof” (Anthrogenesis Corporation, priority 2002, dated 2014)

How the values were obtained:
[1] = test system: Bone marrow and cord blood CD34+ progenitor cells; experiment: Differentiation of CD34+ progenitor cells into dendritic cells, cell surface phenotype by flow cytometry; type: cell-based, human; parameters: key to Cell Population CD15+ / Cell Population CD34+ CD38− / Cell Population CD34− CD38+ / Cell Population CD1a+ CD14− / Cell Population CD1a− CD14+: ↑: up arrow indicates an increase in the cell population; ↓: down arrow indicates a decrease; conditions: day 6; SCF, Flt-3L, GM-CSF and TNF-α; versus DMSO-treated control
Experimental: Bone marrow and cord blood CD34^+ progenitor cells were obtained from Clonetics and cultured in Iscove's MDM with BIT 95000 (StemCell Technologies) in the presence of SCF, Flt-3L, GM-CSF and TNF-α for 6 days, and then in the presence of GM-CSF and TNF-α for 6 additional days.
Analysis of cell surface phenotype: Cells were processed for double staining (30 min at 4° C.) at day 6 and day 12 using FITC and PE conjugated mAbs. Antibodies used were from BD Pharmingen: CD34 (PE), CD38 (FITC), CD33 (FITC), CD1a (FITC), CD86 (PE), CD14 (PE), CD83 (PE), CD54 (PE), CD11b (PE), CD11c (PE), HLA-DR (PE), CD15 (FITC), and CD133 (PE) from Miltenyi. Fluorescence analysis was performed on a FACScan flow cytometer after acquisition of 10,000 events (Coulter). Results presented are representative of four independent experiments.
The methodology described above, i.e., the examination of the effect of IMiDs such as ACTIMID™ on the differentiation on early progenitor cells, such as CD34^+ cells, can be applied to any compound of interest, the effect of which on differentiation is desired to be known. As an example of the extension of this assay method to other compounds, we compared the effect of retinoic acid (ATRA) and aspirin to that of ACTIMID™ on the differentiation of CD34^+ cells toward the DC lineage versus the control (DMSO-treated) cells. Retinoic acid was studied because of its known effect on cellular proliferation and differentiation, its therapeutic use in some cancer, and its known teratogenic effect. Conversely, we studied the effect of aspirin because it is a commonly-used anti-inflammatory drug with no immunomodulatory properties. The results at day 6 of CD34^+ progenitors cells cultured in the presence of SCF, Flt-3L, GM-CSF and TNF-α, with or without compound for a period of 6 days, are presented below in Table 2 (up arrow indicates an increase in the cell population; down arrow indicates a decrease).

[2] = test system: Murine Sca+Lin− hematopoietic progenitor cells; experiment: Generation of murine dendritic cells from bone marrow Sca+Lin− progenitors, cell surface phenotype; type: cell-based, mouse (C57BL/6)
Excerpt: Mouse bone marrow from inbred C57BL/6 mice was obtained from Clonetics. Hematopoietic Sca+Lin− progenitors were enriched using SpinSep murine progenitor enrichment cocktail (StemCell Technologies) and cultured in Iscove's MDM with BIT 95000 (StemCell Technologies) in the presence of murine growth factors SCF, Flt3L, GM-CSF and M-CSF for 9 days, to promote expansion of Sca+ cells and a DC precursor phenotype and then in the presence of GM-CSF and TNF-α for 3 additional days to drive the cells to an immature DC phenotype. Enriched Sca+Lin− cells were cultured in the presence of DMSO (0.1%), ACTIMID™ at 10 μM or all-trans retinoic acid (ATRA) (ICN Biomedicals) at 10 μM from day 0. Compounds were added to cells at day 0 and day 9.
Analysis of Murine cell surface phenotype: Murine cells were processed for double staining (14 min at RT) at day 9 and day 12; using FITC and PE conjugated mAbs. Antibodies used were from BD Pharmingen: Sea (PE), CD11b (FITC), Gr-1 (FITC), CD86 (PE), CD14 (PE), CD80 (PE), I-A^b (PE), CD40 (PE) and CD32.1/16.1 (FITC) from Miltenyi. Fluorescence analysis was performed on a FACScan flow cytometer (Coulter) after acquisition of 10,000 events.

[3] = test system: Human Cord Blood CD34+ Cells; experiment: FACS analysis of proliferation and differentiation of cord blood CD34+ cells cultured with IL3, G-CSF and Kit-ligand; type: cell-based; conditions: for CD11b+ Cell Population / CD34+CD38+ Cell Population / CD34+CD38− Cell Population: 7 days
Experimental: CB CD34+ cells were initiated at 4×10^4 cells/ml in a 24-well plate in 20% FCS IMDM (fetal calf serum/Iscove's Modified Dulbecco's Medium) supplemented with cytokines (1 L3, GCSF and Kit-ligand) (R&D Systems, Inc.). Thalidomide (Thal), ACTIMID™ or REVIMID™ were included in the culture at three different concentrations: 5 μg/ml, 1 μg/ml and 0.3 μg/ml. The same volumes of DMSO were used as controls. A negative control without, any compound was also used (indicated by “none” in FIGS. 3-7). Cells were cultured at 37° C. and 5% CO2 in a humidified incubator for 7 days. Cells were then harvested from each well.
The total cell number from each well was determined by counting in a CELL-DYN® 1700 (Abbott Diagnostics) and the expression of CXCR4, CD45, CD34, CD38, CD 1 lb and Gly-A expression was analyzed by FACS (fluorescence-activated cell sorting) staining (FIGS. 3-7).
CB cells from two different donors (CB2276 and CB2417) were cultured, assayed and analyzed separately (Table 1).

[4] = test system: Purified human cord blood CD34+ cells; experiment: Monocyte production: CD34/CD14 staining of cord blood CD34+ cells cultured 14 days with cytokines; type: cell-based; conditions: 14 days
Experimental: Purified human cord blood CD34+ cells (greater than 90% CD34+) were cultured in 20% FCS IMDM medium supplemented with cytokines (IL3, IL6, G-CSF, KL and Epo) at 4×10^4 cells/ml for 14 days at 37° C. in a humidified 5% CO2 incubator. The experimental groups consisted of a group in which (i) no DMSO or chemical compounds were added (“None”), (ii) DMSO only, (iii) Thalidomide dissolved in DMSO, (iv) ACTIMID™ dissolved in DMSO, and (v) REVIMID™ dissolved in DMSO. Aliquots of cells were harvested and stained with CD34-PE conjugated monoclonal antibody and CD14-FITC conjugated monoclonal antibody.

With `CC1=C(/C=C/C(C)=C/C=C/C(C)=C/C(=O)O)C(C)(C)CCC1` [All-trans RA, all-trans retinoic acid, reference compound] the “Cell Population CD1a+ CD14−” value [1] was “↓”, the “Cell Population CD1a− CD14+” value [1] was “↓” and the “Cell Population CD15+” value [1] was “↑”. For the same compound, the “Cell Population CD34+ CD38−” value [1] was “↓”, the “Cell Population CD34− CD38+” value [1] was “↑” and the “CD80, I-A^b and Sca+ expression by day 9” value ([2]; 10 μM from day 0, data not shown) was “marked downregulation”. The “expression of CD40 and CD80” value ([2]; 10 μM, not shown) was “marked downregulation”.

For `CC(=O)Oc1ccccc1C(=O)O` [Aspirin, acetylsalicylic acid, reference compound], the “Cell Population CD1a+ CD14−” value [1] was “No change”, the “Cell Population CD1a− CD14+” value [1] was “No change” and the “Cell Population CD15+” value [1] was “No change”. For the same compound, the “Cell Population CD34+ CD38−” value [1] was “No change” and the “Cell Population CD34− CD38+” value [1] was “No change”.

For `O=C1CCC(N2C(=O)c3ccccc3C2=O)C(=O)N1` (stereo not drawn) [Thalidomide, reference compound], the “expression of CXCR4” value ([3]; FACS analysis of surface proteins) was “not”, the yield of cells ([3]; IL-3, KL and G-CSF, compared with the DMSO control) was “slightly higher number of cells” and the “effect on the proliferation of CD34+ cells” value ([3]; IL-3, KL and G-CSF, compared with the negative control (none)) was “do not have a significant effect”. The “CD11b+ Cell Population” value ([3]; donor CB2276, 0.3 μg/ml) was 7.6%, the “CD34+CD38+ Cell Population” value ([3]; donor CB2276, 0.3 μg/ml) was 15.1 and the “CD34+CD38− Cell Population” value ([3]; donor CB2276, 0.3 μg/ml) was 3.2. For the same compound, the “CD11b+ Cell Population” value ([3]; donor CB2276, 1 μg/ml) was 6.2%, the “CD34+CD38+ Cell Population” value ([3]; donor CB2276, 1 μg/ml) was 3.8 and the “CD34+CD38− Cell Population” value ([3]; donor CB2276, 1 μg/ml) was 1.0. For the same compound, the “CD11b+ Cell Population” value ([3]; donor CB2276, 5 μg/ml) was 8.1%, the “CD34+CD38+ Cell Population” value ([3]; donor CB2276, 5 μg/ml) was 6.5 and the “CD34+CD38− Cell Population” value ([3]; donor CB2276, 5 μg/ml) was 3.5. The “CD11b+ Cell Population” value ([3]; donor CB2417, 0.3 μg/ml) was 7.8%, the “CD34+CD38+ Cell Population” value ([3]; donor CB2417, 0.3 μg/ml) was 5.0 and the “CD34+CD38− Cell Population” value ([3]; donor CB2417, 0.3 μg/ml) was 0.8. For the same compound, the “CD11b+ Cell Population” value ([3]; donor CB2417, 1 μg/ml) was 5.2%, the “CD34+CD38+ Cell Population” value ([3]; donor CB2417, 1 μg/ml) was 3.8 and the “CD34+CD38− Cell Population” value ([3]; donor CB2417, 1 μg/ml) was 1.0. For the same compound, the “CD11b+ Cell Population” value ([3]; donor CB2417, 5 μg/ml) was 6.5%, the “CD34+CD38+ Cell Population” value ([3]; donor CB2417, 5 μg/ml) was 3.0 and the “CD34+CD38− Cell Population” value ([3]; donor CB2417, 5 μg/ml) was 1.1. The “CD38 status of the majority of CD34+ and CD34− cells” value ([3]; treated cell populations) was “mainly CD38+”, the “percentage of CD34+ cells of the total cells” value ([4]; IL3, IL6, G-CSF, KL and Epo, compound dissolved in DMSO) was 0.24% and the “production of monocytes (CD14+ cells)” value ([4]; relative to DMSO-treated group) was “similar”.
